Converted amounts (≈) assume the structure as drawn. The source made the active and inactive calls. The rule behind the calls is not given here.
Legend:
Candida albicans = assay: Antifungal activity against candida albicans was determined; Active; format: functional, organism-based
HCT-116 = assay: Cytotoxicity against a human colon cancer cell line (HCT116 cells) was reported; format: functional

COc1cc(CCN)c2c(c1OC)SSSSS2 [VARACIN]
Activity (Candida albicans): Active | IC90 (HCT-116): 0.05 µg/mL (≈ 0.147 µM)
